Results taken from patent US20260117173A1, “METHOD FOR MESENCHYMAL PHENOTYPE REVERSION IN PRIMARY HUMAN CORNEAL ENDOTHELIAL CELLS” (UNIVERSITÀ DEGLI STUDI DI MODENA E REGGIO EMILIA, priority 2022, published 2026).

Assays:
[1] = test system: primary human corneal endothelial cells (HCEnCs); experiment: Immunofluorescence of ki67 in sub-confluent HCEnCs; assay type: cell-based
Procedure: Immunofluorescence staining was performed on primary cultured […] after fixation in 3% PFA 15 min at room temperature (RT). Triton X-100 used at 1% for 10 min at RT allowed cell permeabilization and a solution of bovine serum albumin (BSA) 2%, FBS 2%, Triton X-100 at 0.01% in PBS was used for 30 min at 37° C. to block the non-specific binding sites. Primary and secondary antibodies were incubated for 1 h at 37° C. while nuclei were counterstained with DAPI at RT for 5 minutes before mounting the glass coverslips using amounting medium such as DAKO. Primary antibodies used herein are listed in Table 2 while secondary antibodies used are: Alexa Fluor 488 anti-rabbit, 1:2,000, and Alexa Fluor 568 anti-mouse, 1:1,000 (Thermo Fisher Scientific). Images were obtained with a confocal microscope (LSM900 Airyscan-Carl Zeiss).

[2] = test system: primary human corneal endothelial cells (HCEnCs); experiment: Phase-contrast morphology of primary HCEnCs cultures treated with CHIR; assay type: cell-based
Procedure: Human corneas tissues (obtained after informed consent to the eye bank and the use was approved by the ethical committee) were preserved in media for tissue preservation as for example Eusol, OptiSOL or others and used within approximately 15 days from death; a list of detail for some corneas used and relative experiments is shown in Table 1. HCEnCs were isolated through Descemet's stripping and digestion with Collagenase A (Roche) for 1-16 h at 30-39° C. After 5-10 minutes in Trypsin or other proteolytic enzymes at 37° C., HCEnCs were pelleted at 1,200 rpm for 3 min and plated in FNC Coating mix treated wells.
(§1) HCEnCs were cultured between 31 and 39° C. in 4-10% CO2, changing the growth medium every other day. The growth medium can be OptiMEM-I, MEM, F12, Human Endothelial SFM, 2-10% HyClone fetal bovine serum (FBS), 2-10 ng/ml epidermal growth factor (EGF), 5-50 μg/mL ascorbic acid, 40-300 mg/L calcium chloride, 0.01-0.2% chondroitin sulphate, and penicillin/streptomycin. Upon confluency, HCEnCs were rinsed in DPBS and passaged at a ratio of 1:2 or 1:3 with Trypsin or other proteolytic enzymes for 10-30 min at 31-39° C. in 4-10% CO2. Sub-confluent cultures were harvested approximately 1 day after plating.
(§2) Before or whenever primary HCEnCs encountered a morphological variation, the GSK inhibitor CHIR99021 (also defined as 6-[[2-[[4-(2,4-Dichlorophenyl)-5-(5-methyl-1H-imidazol-2-yl)-2-pyrimidinyl]amino]ethyl]amino]-3-pyridinecarbonitrile) was prepared and added to the culture media at a concentration range of 0.1-10 μM. Multiple solvents and methods have been used to dissolve CHIR stock solution. Ultrasonic were applied for CHIR dilutions in sodium carboxymethyl cellulose (CMC-Na) in saline water and 20% Sulfobutylether-β-Cyclodextrin (SBE-β-CD), adjusted to pH 3-6, with 1 N acetic acid. CHIR can be also diluted in dimethyl sulfoxide (DMSO) at 70-100% (v/v), with a solution composed of 10% DMSO 40% PEG300 5% Tween-80 in saline water or composed of 10% DMSO and 20% SBE-β-CD in saline water. Once obtained a clear solution, the stock solution was aliquoted and stored at-20/−80° C. until use.

[3] = test system: primary human corneal endothelial cells (HCEnCs); experiment: HCEnCs count upon detachment at confluency for progressive passages; assay type: cell-based; conditions: CHIR 0.1-9 μM vs relative untreated control
Procedure: as §1, with “HCEnCs” left out

[4] = test system: primary human corneal endothelial cells (HCEnCs); experiment: Cell cycle analysis by FACS (propidium iodide) of sub-confluent HCEnCs; assay type: cell-based; conditions: sub-confluent HCEnCs P5-P6-P8, CHIR 0.1-9 μM vs untreated
Procedure: The cell cycle was studied by staining sub-confluent cultures of […] with Propidium Iodide (PI; Sigma-Aldrich). […] from cell culture were washed with DPBS and incubated for 1 h at 4° C. in the dark with 250 μL of a PBS solution composed by PI 50 μg/mL, Triton X-100 (Bio-Rad, USA) at 0.1%. Cells were then analysed using BD FACSCanto II (BD BIOSCIENCES; San Jose, CA USA). For each sample, 20,000 events were considered for the analysis to ensure statistical relevance and results were analysed with a ModFit 3.0 software.

[5] = test system: primary human corneal endothelial cells (HCEnCs); experiment: Immunofluorescence of ZO-1 and α-SMA markers in primary HCEnCs; assay type: cell-based
Procedure: as §1, §2
Immunofluorescence staining was performed on primary cultured HCEnCs after fixation in 3% PFA 15 min at room temperature (RT). Triton X-100 used at 1% for 10 min at RT allowed cell permeabilization and a solution of bovine serum albumin (BSA) 2%, FBS 2%, Triton X-100 at 0.01% in PBS was used for 30 min at 37° C. to block the non-specific binding sites. Primary and secondary antibodies were incubated for 1 h at 37° C. while nuclei were counterstained with DAPI at RT for 5 minutes before mounting the glass coverslips using amounting medium such as DAKO. Primary antibodies used herein are listed in Table 2 while secondary antibodies used are: Alexa Fluor 488 anti-rabbit, 1:2,000, and Alexa Fluor 568 anti-mouse, 1:1,000 (Thermo Fisher Scientific). Images were obtained with a confocal microscope (LSM900 Airyscan—Carl Zeiss).

[6] = test system: corneal endothelial derived cell line, B4G12; conditions: B4G12 cell line (Wang et al., 2022); cited from earlier work
[7] = P1, CHIR at 0.1-9 μM, vs untreated (ctr)
[8] = P1, CHIR at a concentration >10 μM

Cc1cnc(-c2cnc(NCCNc3ccc(C#N)cn3)nc2-c2ccc(Cl)cc2Cl)[nH]1 [CHIR, 6-[[2-[[4-(2,4-Dichlorophenyl)-5-(5-methyl-1H-imidazol-2-yl)-2-pyrimidinyl]amino]ethyl]amino]-3-pyridinecarbonitrile]
cell proliferation rate ([1]; primary HCEnCs, evaluated with different assays (FACS, count, ki67)): does not enhance cell proliferation rate
ki67 protein expressing cells ([1]; sub-confluent HCEnCs P5, Strain 3, CHIR 0.1-9 μM vs untreated): equal
ki67 protein expressing cells ([1]; sub-confluent HCEnCs P5, Strain 4, p<0.05, CHIR 0.1-9 μM vs untreated): significant reduction
reversion of elongated morphology ([2]; CHIR 0.1-9 μM added at a later passage, P6 confluence): able to reverse the elongated morphology
reversion of cell phenotype / morphology ([2]; CHIR 0.1-9 μM applied to HCEnCs already elongated in culture (P3)): restoring a polygonal morphology
reversion of elongated phenotype ([2]; CHIR 0.1-9 μM, progressive passages, at least up to P8): reversing the elongated phenotype
HCEnCs morphology ([2]; P1, CHIR at 0.1-9 μM, vs untreated HCEnCs (ctr)): restored the polygonal morphology
HCEnCs morphology ([2]; P1, CHIR at concentrations >10 μM, vs untreated cells): exacerbated elongated morphology
HCEnCs morphology ([2]; P3, CHIR 0.1-9 μM vs untreated (ctr)): untreated cells (ctr) appeared more elongated than CHIR treated HCEnCs
number of HCEnCs at confluency for each passage [3]: constantly lower
percentage of cells at G2/M [4]: reduced the percentage of cells at G2/M
percentage of cells in G0/G1 phase of cell cycle [4]: enhanced the percentage of cells in G0/G1 phase
percentage of α-SMA expressing cells ([5]; P1, CHIR 0.1-9 μM, untreated approx. 40%): ~17%
ZO-1 expression [5, 7]: restored sealed ZO-1 pattern of expression
α-SMA expression [5, 7]: reduced levels of α-SMA
ZO-1 expression [5, 8]: disappearance of ZO-1 expression
endothelial to mesenchymal transition (EnMT) [5, 8]: accelerated the process of endothelial to mesenchymal transition
α-SMA expression [5, 8]: highly expressed in every cell
ZO-1 expression ([5]; P3, CHIR 0.1-9 μM): restores ZO-1 pattern of tight junctions
α-SMA expression ([5]; P3, CHIR 0.1-9 μM): drastically reduces expression of α-SMA
cell proliferation [6]: concomitant enhancement in cell proliferation
mesenchymal conversion [6]: prevent mesenchymal conversion (but not to reverse it)
